{"source": "paper PMC8319882", "about": "(Drugs in R&D, 2021)", "tested_on": "SARS-CoV-2 spike protein binding to ACE2"}
{"sequence": "FLDKFNHNFKDLF [13AApi]", "values": [{"measurement": "Inhibition of interaction between SARS-CoV-2 spike and immobilized ACE2", "result": "Greater than 40%"}]}
